# Data: patent publication US11760784B2, “Compositions comprising PEDF-derived short peptides and uses thereof” (BRIM Biotechnology, Inc., priority 2016, dated 2023)
# “Also recorded” adds a separate entry of the source.
# What was measured:
# [1] = test system: desiccating stress-induced dry eye; test: Tear production by phenol red thread test in CEC dry eye mice; type: in vivo, C57BL/6 mice; conditions: CEC 14 days
# Description: Dry eye was induced by placing mice in a controlled environment chamber (CEC) as previously described (Barabino et al., 2005). Briefly, mice placed in the CEC were exposed to a relative humidity (RH)<25%, temperature of 20 to 22° C., and airflow of 15 L/min, 12 hours per day. Non-stressed (NS) mice without stress-induced dry eye were kept in a normal environment (RH >50%, no air flow, temperature of 21-23° C.) for the same duration. Corneal fluorescein staining and
# Tear production was measured with phenol red-impregnated cotton threads (Zone-Quick; Oasis, Glendora, CA). The validity of this test in mice was performed as previously described (Dursun et al., 2002). The threads were held with jeweler forceps and placed in the lateral canthus for 60 seconds. The tear production is expressed in millimeters of thread that is wet by the tear and turned red.
# To determine whether PDSP have therapeutic effects in a desiccating stress (DS)-induced ocular surface defects, mice were housed at controlled environment chamber (CEC) for 14 days to create ocular surface disruption. After 14 days in CEC, we used mice with fluorescence scores that are above 2 for the first experiments (FIG. 1A). […]
# [2] = test system: IL-1β mRNA; test: Ocular IL-1β mRNA by quantitative real-time PCR in CEC dry eye mice; type: in vivo, C57BL6 mice; conditions: CEC 14 days, then topical PDSP for 5 days
# Description: (§1) Dry eye is associated with abnormalities in the pre-corneal tear film and subsequent inflammatory changes in the entire ocular surface including the adnexa, conjunctiva and cornea. (see, Hessen et al., “Dry eye: An Inflammatory Ocular Disease,” J. Ophthalmic Vis. Res., 2014, 9(2): 240-250). Therefore, the effects of PDSPs in corneal inflammatory responses were next examined. Briefly, C57BL6 mice were housed in CEC for 14 days (Day 0) and then treatment with PDSP or vehicle were performed for additional 5 days (Day 5). Then, mRNA levels for inflammatory factors were evaluated by quantitative real-time PCR.
# (§2) The total RNA was extracted from cells using TRIzol (Invitrogen) and treated with RNase free DNase I (Qiagen, Santa Clarita, CA) to remove genomic DNA and then purified with an RNA purification kit (Dynabeads; Invitrogen). […] Quantitative real-time PCR was performed in a GeneAmp 7700 sequence detection system (Applied Biosystems, Foster City, CA). […] All determinations were measured in triplicate. The cycle threshold (Ct) values corresponded to the PCR cycle number at which fluorescence emission in real time reaches a threshold above the base-line emission were analyzed using GeneAmp 7700 SDS software. The Ct value of the PCR product of interest and a control mRNA (GAPDH) were then used to calculate relative quantities of mRNA between samples.
# [3] = test system: IL-6 mRNA; test: Ocular IL-6 mRNA by quantitative real-time PCR in CEC dry eye mice; type: in vivo, C57BL6 mice; conditions: CEC 14 days, then topical PDSP for 5 days
# Description: as §1, §2
# [4] = test system: GSH in rabbit corneal epithelial cells; test: Glutathione (GSH) level (OPA probe) in NaCl-treated corneal epithelial cells; type: cell-based; conditions: 10 μM PDSP, isotonic medium, compared to untreated
# Description: We therefore examined the effects of PDSP on the intracellular ROS and GSH levels in NaCl-treated (HOP) rabbit corneal epithelial cells. Briefly, rabbit corneal epithelial cells were pretreated with 10 μM PDSP or a negative control peptide (ConP) for 20 hours, followed by treatment with NaCl to induce hyperosmotic stress. After NaCl treatment for another 24 hours, cells were assessed for ROS using a 2′,7′-dichlorodihydrofluorescein diacetate (H2DCFDA) probe, which is an ROS indicator dye. H2DCFDA can diffuse into cells, where its acetate ester linkages are cleaved by intracellular esterases and be oxidized by ROS, which converts the nonfluorescent dichlorodihydrofluorescein diacetate (H2DCFDA) to highly fluorescent […] (DCF).
# Limbal stem cells were isolated from 6-month-old New Zealand white rabbits and continuously cultivated for 14 days by DMEM/F-12 basal medium based cell-suspension culture to achieve corneal-liked epithelial cell differentiation as previously described (Ho et al., 2013). […]
# The GSH levels were quantified using a Glutathione Assay Kit (BioVision Research Products, Mountain View, Calif.) according to the manufacturer's recommendations. […] The fluorescence was read at 340 nm for excitation and 420 nm for emission on a SPECTRAmax GEMINI XS fluorescence microplate spectrophotometer (Molecular Devices, Sunnyvale, Calif.).
# [5] = test system: MMP-9 activity; test: MMP-9 activity by gelatin zymography in NaCl-treated corneal epithelial cells; type: cell-based, rabbit; conditions: PDSP pretreatment 20 hours, then hyperosmotic medium (463 mOsM) 24 hours
# Description: Limbal stem cells were isolated from 6-month-old New Zealand white rabbits and continuously cultivated for 14 days by DMEM/F-12 basal medium based cell-suspension culture to achieve corneal-liked epithelial cell differentiation as previously described (Ho et al., 2013). To induce ROS or MMP-9 activity caused by hyperosmotic stress, cells were incubated overnight in hypertonic media (463 mOsm) achieved by addition of 90 mM NaCl. Cells cultured in DMEM/F-12 basal medium (309 mOsm) was used as negative control. To detect the preventive effect on hyperosmotic stress-induced ROS or MMP-9 activity, cells were pretreated with 10 μM PDSP for 20 hours before the treatment of NaCl.
# To detect MMP-9 activity, 10 μL of culture medium was used to perform gelatin zymography as previous described method (Li et al., 2004). The band intensity was evaluated in zymography with a model GS-700 imaging densitometer (Bio-Rad Laboratories, Hercules, Calif.) and analyzed using Labworks 4.0 software.
# To investigate the effect of PDSP on hyperosmotic stress-induced MMP-9 expression in corneal epithelial cells, cells were pretreated with the PDSP or control peptide (ConP) for 20 hours and then exposed the cells to hyperosmotic medium (463 mOsM) for another 24 hours. […] However, the PDSP pretreatment repressed the MMP-9 mRNA expression by a factor of 2-fold.
substance,measurement,setting,value
"PDSP: 29mer, residues 93-121 of human PEDF: SLGAEQRTESIIHRALYYDLISSPDIHGT (SEQ ID NO:4) (listed as Homo sapiens)",tear production (cotton thread test),"[1]; then PDSP for 5 days, vehicle 4.5±0.2, day 0 3.8±0.5, non-stressed 5.4±0.4",5±0.3 mm
same,"tear production (phenol red thread), human vs mouse PDSP","[1]; then peptide for 3 days (FIG. 12), listed as human PDSP",capable of restore; also recorded: improved tear productions to the same extent
same,repression of ocular IL-1β mRNA expression compared to vehicle-treated group,[2],2.4 fold
same,repression of ocular IL-6 mRNA expression compared to vehicle-treated group,[3],2.0 fold
same,GSH level without HOP stress (peptide alone),[4],slight increase
same,repression of MMP-9 activity (gelatin zymography),[5],3 fold
